According to ChEMBL document CHEMBL1649474, “Pharmacodynamics of levofloxacin in a murine pneumonia model of Pseudomonas aeruginosa infection: determination of epithelial lining fluid targets” (Antimicrob Agents Chemother, 2009):

Columns and labels:
[1] = AUC in plasma of Swiss-Webster mouse infected with Pseudomonas aeruginosa at 200 mg/kg, ip administered as single dose; format: ADME, organism-based; parameters: dose 200 mg/kg, route intraperitoneal
[2] = AUC in epithelial lining fluid of Swiss-Webster mouse infected with Pseudomonas aeruginosa at 200 mg/kg, ip administered as single dose; format: ADME, organism-based; parameters: dose 200 mg/kg, route intraperitoneal
[3] = Drug uptake in epithelial lining fluid of Swiss-Webster mouse infected with Pseudomonas aeruginosa at 200 mg/kg, ip administered as single dose; format: ADME, organism-based; parameters: dose 200 mg/kg, route intraperitoneal; conditions: in vivo
[4] = Apparent volume of distribution with respect to bioavailability in epithelial lining fluid of Swiss-Webster mouse infected with Pseudomonas aeruginosa at 200 mg/kg, ip administered as single dose; format: ADME, organism-based; conditions: read-out: Vc/F
[5] = Volume of distribution in epithelial lining fluid of Swiss-Webster mouse infected with Pseudomonas aeruginosa at 200 mg/kg, ip administered as single dose; format: ADME, organism-based; parameters: dose 200 mg/kg, route intraperitoneal; conditions: in vivo
[6] = Absorption rate constant in epithelial lining fluid of Swiss-Webster mouse infected with Pseudomonas aeruginosa at 200 mg/kg, ip administered as single dose; format: ADME, organism-based; parameters: dose 200 mg/kg, route intraperitoneal; conditions: in vivo
Pseudomonas aeruginosa = assay: Antimicrobial activity against Pseudomonas aeruginosa infected in Swiss-Webster mouse at 200 mg/kg, ip administered as single dose; format: functional, organism-based; parameters: dose 200 mg/kg, route intraperitoneal
[7] = Apparent clearance in epithelial lining fluid of Swiss-Webster mouse infected with Pseudomonas aeruginosa at 200 mg/kg, ip administered as single dose

AUC [1]: 64000 ng·h/mL
AUC [2]: 49800 ng·h/mL
Drug uptake [3]: 77.7%
Vd/F [4]: 0.044 L
Vd [5]: 0.024 L
Ka [6]: 7.81 h⁻¹
EC50 (Pseudomonas aeruginosa): 3.15 µg/mL
CL/F [7]: 1.3 mL/min
SMILES: C[C@H]1COc2c(N3CCN(C)CC3)c(F)cc3c(=O)c(C(=O)O)cn1c23.C[C@H]1COc2c(N3CCN(C)CC3)c(F)cc3c(=O)c(C(=O)O)cn1c23.O [LEVOFLOXACIN]
